Patent US10100077B2, “6-aryl-9-glycosylpurines and use thereof” (UNIVERZITA PALACKEHO V OLOMOUCI, priority 2014, dated 2018)

Columns and labels:
[1] = test system: detached leaf segments of Triticum aestivum cv. Hereward; assay: Senescence bioassay on wheat leaf segments (chlorophyll retention); details: chlorophyll retention at maximum effective concentration, 96 h dark
Experimental: Seeds of winter wheat, Triticum aestivum cv. Hereward, were washed under running water for 24 hours and then sown on vermiculite soaked with Knop's solution. They were placed in the growth chamber at 25° C. with a 16/8 h light period at 50 μmol·m^−2·s^−1. After 7 days, the first leaf was fully developed and the second leaf had started to grow. A tip section of the first leaf, approximately 35 mm long, was removed from 5 seedlings and trimmed slightly to a combined weight of 100 mg. The basal ends of the five leaf tips were placed in the wells of a microtiter polystyrene plate containing 150 μL, of the tested derivative solution each. The entire plate was inserted into a plastic box lined with paper tissues soaked in distilled water to prevent leaf sections from drying out. After 96 h incubation in the dark at 25° C., the leaves were removed and chlorophyll extracted by heating at 80° C. for 10 min in 5 mL of 80% ethanol (v/v). The sample volume was then restored to 5 mL by the addition of 80% ethanol (v/v). The absorbance of the extract was recorded at 665 nm. In addition, chlorophyll extracts from fresh leaves and leaf tips incubated in deionised water were measured. The results are means of five replicates and the entire test was repeated twice. […] The compounds to be tested were dissolved in dimethylsulfoxide (DMSO) and the solution brought up to 10^−3M with distilled water. This stock solution was further diluted with the respective media used for the biotest to a concentration ranging from 10^−8M to 10^−4M. […] The activity obtained for 10^−4 M of BAP was postulated as 100%.

[2] = test system: Normal human dermal fibroblasts (NHDF); assay: In vitro UVA photoprotection test (neutral red); type: cell-based; details: UVA 7.5 J/cm^2, 0.9; 1.8; 3.9 a 7.8 μmol/l, 60 minutes pre-incubation
Source text: Normal human dermal fibroblasts (NHDF) were used as an in vitro model. Cells were isolated from tissue specimens obtained from healthy patients undergoing plastic surgery at the Department of Plastic and Aesthetic Surgery (University Hospital Olomouc). The use of skin tissue was in accordance with the Ethics Committee of the University Hospital and Faculty of Medicine and Dentistry, Palacký University, Olomouc and all patients signed written informed consent. Fibroblasts were used between the 2nd and 4th passage. For all experiments the fibroblasts were seeded onto 96-well plates at a density of 0.8×10^5 cells/ml (0.2 ml per well) of cultivation medium (DMEM supplemented with foetal calf serum (10%, v/v), penicillin […] and streptomycin (100 U/ml)).
Test compounds included 6-(3-methoxybenzylamino)-9-β-D-arabinofuranosylpurine. […] Intensity of UVA or UVB radiation was evaluated before each irradiation by UVA- or UVB-meter. […] After 24 hours (37° C., 5% CO2) cell damage was evaluated by neutral red (NR) incorporation into viable cells. […] After 5 minutes of intensive shaking absorbance was measured at 540 nm. […] Photoprotective effect was evaluated by comparison of experimental data (absorbance) of test compounds with a positive control and a negative control (according to the following equation: […]

[3] = test system: skin fibroblasts BJ and keratinocytes HaCaT; assay: MTT in vitro cytotoxicity test for skin cells; type: cell-based; details: Homo sapiens; MTT, 72 hour treatment, BJ and HaCaT, maximal concentration 50 microM
Outline: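 BJ fibroblasts and HaCaT keratinocytes (~5,000 cells/well, seeded 24 h prior) exposed 72 h to sixfold dilutions from 50 microM; DMSO vehicle as negative control. MTT added at 0.5 mg/ml final for 3 h, formazan dissolved in DMSO, absorbance read at 570 nm (640 nm reference). IC50 taken from dose-response curves.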

COc1cccc(CNc2ncnc3c2ncn3[C@@H]2O[C@H](CO)[C@@H](O)[C@@H]2O)c1 [6-(3-methoxybenzylamino)-9-β-D-arabinofuranosylpurine]
activity (%) [10^−4 mol · l^−1 BAP = 100%] [1]: 118 ± 2% | viability after UVA vs DMSO control (photoprotection) [2]: higher viability | IC50 [3]: > 50 µM
